This is an account of results in patent US20210393785A1, “Nucleic acid nanocarrier drug and preparation method thereof” (BAI YAO ZHI DA (BEIJING) NANOBIO TECHNOLOGY CO., LTD., priority 2018, published 2021).

For one data set, the system named is SGC-7901 cells. Put plainly: Cytotoxicity in SGC-7901 cells (CellTiter 96 AQueous One, OD490). Type of data set: cell-based, human. The following applies: 96 hours. The protocol:
(§1) 1) Harvesting cells in a logarithmic growth phase, taking a small amount and staining with trypan blue for counting to ensure that the cell viability reaches more than 98%;
(§2) 3) planting 90 μL/well of cell suspension into the 96-well plate, herein the number of cells per well in the plate is 2000;
(§3) 4) placing the planted cell plate in the incubator at 37 DEG C. and incubating overnight;
(§4) 5) performing 3.16-fold gradient dilution on the compound at 9 concentration points;
6) taking out the cell culture plate, and adding 10 μL/well of 10× concentration drug working solution to the corresponding wells of the cell culture plate, herein three replicate holes are made for each concentration, and the final drug action concentration is shown in Table 76 below;
(§5) 7) placing the cell culture plate in the incubator and continuously incubating for 96 hours;
8) placing the CellTiter 96® AQueous One Solution reagent at the room temperature and thawing for 90 minutes or thawing in a water bath at 37 DEG C., and placing at the room temperature and equilibrating for 30 minutes; […]
(§6) 11) using a microplate reader to read a OD490 value of each well in the cell plate; and […]
(§7) GraphPad Prism 5.0 software is used to process data graphically. […] A calculation formula of the survival rate is as follows, the IC50 may be automatically calculated in GraphPad Prism 5.0. […]

In data set [1] the test system is HepG2 cells. Put plainly: Cytotoxicity in HepG-2 cells (CellTiter-Glo). The format is cell-based, human. The following applies: 96 hours. The protocol: 1) Harvesting cells in a logarithmic growth phase, taking a small amount and staining with trypan blue for counting to ensure that the cell viability reaches more than 80%;
as §2
4) placing the planted cell plate in the incubator at 37 DEG C. and incubating overnight under conditions of 5% CO2 and 95% humidity;
as §4
6) taking out the cell culture plate, and adding 10 μL/well of 10× concentration drug working solution to the corresponding wells of the cell culture plate, herein three replicate holes are made for each concentration, and the final drug action concentration is shown in Table 56 below;
as §5
8) placing the CellTiter-Glo reagent and the drug treatment cell culture plate at the room temperature and equilibrating for 30 minutes;
9) adding 50 μL of the CellTiter-Glo reagent to each well;
10) shaking in the orbital shaker for 2 minutes so that the cells are adequately lysed;
11) placing the cell culture plate at the room temperature and equilibrating for 10 minutes, reading a chemiluminescence value by using EnVision; and
12) data processing and analysis.
GraphPad Prism 5.0 software is used to process data graphically. Nonlinear S-curve regression is used to fit the data to obtain a dosage-effect curve, and an IC50 value is calculated from this.
Cell survival rate (%)=(Lumdrug to be tested−Lummedium control)/(Lumcell control−Lummedium control)×100%.
Lumcell control-Lummedium control is set to 100%, and a LumMedium control value is set to 0%.

The next data set has as its system LN-229 cells. The experiment in a line: Cytotoxicity in LN-229 cells. The format is cell-based. The following applies: 96 hours.
A further data set relates to Hela cells. Put plainly: Cytotoxicity in Hela cells (CellTiter 96 AQueous One, OD490). The format is cell-based. The following applies: Homo sapiens, 72 hours. The protocol:
as §1
3) planting 90 μL/well of cell suspension into the 96-well plate, herein the number of cells per well in the plate is 5000;
as §3, §4
6) taking out the cell culture plate, and adding 10 μL/well of 10× concentration drug working solution to the corresponding wells of the cell culture plate, herein three replicate holes are made for each concentration, and the final drug action concentration is shown in Table 66 below;
7) placing the cell culture plate in the incubator and continuously incubating for 72 hours;
8) placing the CellTiter 96® AQueous One Solution reagent at the room temperature and thawing for 90 minutes or thawing in a water bath at 37 DEG C., placing at the room temperature and equilibrating for 30 minutes; […]
as §6, §7

Data set [2] has as its system HepG2 cells. The experiment in a line: CCK8 toxicity of DNA nanoparticles and carrier drugs to HepG2. Type of data set: cell-based. The following applies: Homo sapiens, 72 hours. The protocol:
A CCK8 method is used to detect the toxicity of DNA nanoparticles and carrier drugs to HepG2.
1. HepG2 cells in a logarithmic growth phase are taken, trypan blue is used for staining and the cell viability is counted to be 98.3%, plating is performed with 5000 Cell/well, a volume is 100 μL/well, 8 96-well plates are paved with 57 wells per plate, and it is incubated overnight at 37 DEG C.
2. A sample to be tested is diluted according to the following table and added: the original culture medium is removed and 100 μL of a culture medium of the sample to be tested with the different concentration is added, and there are 3 replicate wells in each group.
In the present embodiment, the loaded drug and the blank carrier are firstly prepared into 100 μM of stock solution by using the PBS, and then diluted with the complete culture medium (biotin-free DMEM). The original drug doxorubicin is firstly prepared into 100 μM of stock solution by the DMSO, and then diluted with the complete culture medium (biotin-free DMEM). The DMSO is directly diluted with the complete medium (biotin-free DMEM).
3. […]
6. A microplate reader is used to measure an absorbance at 450 nm.
7. Calculation: cell viability (%)=(OD experimental group-OD blank group)×100%/(OD control group-OD blank group), IC50 is calculated by Graph Pad Prism 5.0.

Data set [3] is described as follows: Particle size measurement (DLS hydrodynamic size). The format is physicochemical. The source says:
1. Preparing a potential sample (conventional-sequence DNA self-assembly product D-7) and putting into a sample pool, opening a sample pool cover of an instrument, and placing the instrument; […]
4. clicking Ok to complete the settings, while a measurement dialog box appears, clicking Start to start, a DLS measurement value result of a hydrodynamic size of the self-assembly product D-7 is as follows: […]

Several values for one entry are separate records, joined by “and”; a condition that tells them apart may be missing. Equal values may be shown once.

Procedure for LN-229 cells: 2) adjusting the cell density to 2.22×10^4/mL with a growth medium;
6) taking out the cell culture plate, and adding 10 μL/well of 10× concentration drug working solution to the corresponding wells of the cell culture plate, herein three replicate holes are made for each concentration, and the final drug action concentration is shown in Table 46 below;
8) placing the CellTiter 96® AQueous One Solution reagent at the room temperature and thawing for 90 minutes or thawing in a water bath at 37 DEG C., and then equilibrating at the room temperature for 30 minutes;
9) adding 50 μL/well of the CellTiter 96® AQueous One Solution reagent to the cell culture plate; […]
11) using the microplate reader to read a OD490 value of each well in the cell plate; and […]

Turning to `O=C1[O][Pt]2([NH][C@@H]3CCCC[C@H]3[NH]2)[O]C1=O` [Oxaliplatin], in the data set on SGC-7901 cells, the IC50 (as a rule, the point on the concentration scale where inhibition reaches its midpoint) amounted to 55.8 µM.

`CC[C@]1(O)C[C@H]2CN(CCc3c([nH]c4ccccc34)[C@@](C(=O)OC)(c3cc4c(cc3OC)N(C=O)[C@H]3[C@@](O)(C(=O)OC)[C@H](OC(C)=O)[C@]5(CC)C=CCN6CC[C@]43[C@@H]65)C2)C1` [Vincristine]: the half-inhibitory concentration (IC50) in the data set on HepG2 cells [1] (Homo sapiens) was 1.68 µM. The inhibition at 100 µM in the data set on HepG2 cells [1] (Homo sapiens, highest concentration of each sample (Table 56: 100 μM, DNAh-Bio-Cy5 4.9 μM), read-out: Inhibition rate of cell proliferation at highest concentration itself) came to 70.7%. `N.N.[Cl][Pt][Cl]` [Cisplatin]: the half-maximal inhibitory concentration (IC50) in the data set on LN-229 cells was 12.5 µM; in the data set on HepG2 cells [1], 3.99 µM. The “Inhibition rate of cell proliferation at highest concentration itself” value in the data set with HepG2 cells [1] (highest concentration of each sample (Table 56: 100 μM, DNAh-Bio-Cy5 4.9 μM)) turned out to be 99.36%. In the case of `O=c1cc(-c2ccccc2)oc2ccccc12` [Flavone], the midpoint of inhibition in the data set with Hela cells, the IC50, lay at 12.6 µM. In the case of `COc1cccc2c1C(=O)c1c(O)c3c(c(O)c1C2=O)C[C@@](O)(C(=O)CO)C[C@@H]3O[C@H]1C[C@H](N)[C@H](O)[C@H](C)O1` [doxorubicin], the half-inhibitory concentration (IC50) with HepG2 cells [2] was 0.273 µM. Molecule `C[C@H]1[C@@H](O)O[C@@H]2O[C@@]3(C)CC[C@H]4[C@H](C)CC[C@@H]1[C@@]24OO3` [DHA (dihydroartemisinin), Dihydroartemisinin] had an IC50 in the data set with LN-229 cells (Homo sapiens) of 20.2 µM.

B1: D-7: conventional-sequence DNA nanoparticles, SEQ ID NO:117-119, no target head, thio modification (nucleic acid)
chain 1: CGCGCGCCCACGAGCGTTGCGGGCGCCGC
chain 2: GCGGCGCCCGCTTCGGCGGCAGGCGGC
chain 3: GCCGCCAGCCGCCCATAGCCGTGGGCGCGCG
modifications: DNA, backbone not given here; phosphorothioate (thio) modified DNA nanoparticle, further chemistry not fully specified
Regarding B1, the “Particle size Z-Ave, Experiment result” value in data set [3] (result over the 3 detections) is given as 12.33 d · nm (±1.57 d · nm). For the same molecule, the “Particle size Z-Ave” value in data set [3] (single detections 1-3, DLS hydrodynamic size) was 10.76 nm·days and 13.9 nm·days and 10.36 nm·days.
